The source of these data is US10166218B2, “3-(1H-indol-2-yl)-1H-pyrazolo[3,4-C]pyridines and therapeutic uses thereof” (Samumed, LLC, priority 2015, dated 2019).

Common to all, as to format: cell-based
The test system of one experiment is SW480 colon cancer cells. The experiment can be described thus: Cell viability assay (CellTiter-Blue) in SW480 colon cancer cells. As to conditions: Homo sapiens, 96 h, four days; for inhibition at 10 µM: read-out: percent inhibition at 10 μM (given for EC50 of >10 μM); for EC50: CellTiter-Blue. Summed up:
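4-day exposure, 37 °C/5% CO2; ~2×10^3 SW480 cells/well; 8-pt 1:3 curve, 10–0.0045 μM, duplicates vs DMSO controls. Resazurin→resorufin fluorescence readout, ~3 h. EC50 by nonlinear fit; if >10 μM, % inhibition at 10 μM reported.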
(In general: Alamar Blue is a resazurin reagent that responds to reducing activity.)

The test system of experiment [1] is Wnt activity (Sp5-Luc reporter, TCF/LEF binding sites) in SW480 colon carcinoma cells. The experiment can be described thus: Screening assay for Wnt activity: Sp5-Luc reporter gene assay in stably transduced SW480 cells. The note with it: Homo sapiens; for EC50: overnight incubation. The method in brief:
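SW480 cells stably transduced with an Sp5 promoter (eight TCF/LEF sites)–firefly luciferase lentiviral reporter, plated at 4,000 cells/well in 1% FBS medium with compounds (10-point 1:3 series from 10 μM, 0.1% DMSO) overnight at 37 °C. BrightGlo luminescence normalised to DMSO; EC50 by four-parameter fit, else % inhibition at 10 μM.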
In general terms: Reporter assays use an easily measured gene product as a stand-in for the process of interest.

In the next experiment the test system is IL-6 (THP-1 cells). The experiment can be described thus: Inhibition of IL-6 in LPS-stimulated THP-1 human monocyte cells (HTRF). The note with it: for EC50: inhibition of IL-6 in LPS-stimulated THP-1 cells, HTRF, 10-point dose-response starting from 10 μM; for inhibition at 10 µM: IL-6 assay in LPS-stimulated THP-1 cells, given only where EC50 >10 μM, meaning not given (top concentration 10 μM), read-out: percentage given in parentheses after EC50 >10. Summed up: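 Readout is the 665/620 nm HTRF ratio for secreted IL-6, normalized to DMSO wells, with EC50 from a variable-slope four-parameter fit, or % inhibition at 10 μM when above 10 μM. Cells (1% FBS, 24 h beforehand) got compound for 2 h, then LPS 500 ng/mL for 22 h at 37° C; top dose 10 μM, 0.1% DMSO.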
For orientation: TR-FRET usually uses a lanthanide donor and a delayed reading to cut background.

Some results are limits rather than exact numbers.

Consider `CC(C)(C)C(=O)Nc1cncc(-c2cc3c(-c4cc5c(-c6ccncc6)cccc5[nH]4)n[nH]c3cn2)c1` [Compound 120, N-(5-(3-(4-(Pyridin-4-yl)-1H-indol-2-yl)-1H-pyrazolo[3,4-c]pyridin-5-yl)pyridin-3-yl)pivalamide], for which the inhibition at 10 µM in the experiment with SW480 colon cancer cells was 32.2%. The EC50 (as a rule, the concentration at which the effect is half-maximal) in the experiment on SW480 colon cancer cells was over 10000 nM; in experiment [1] it was 194 nM; in the experiment with IL-6 (THP-1 cells), 2500 nM.

Turning to `CC(C)(C)CC(=O)Nc1cncc(-c2cc3c(-c4cc5c(-c6ccncc6)cccc5[nH]4)n[nH]c3cn2)c1` [Compound 128, 3,3-Dimethyl-N-(5-(3-(4-(pyridin-4-yl)-1H-indol-2-yl)-1H-pyrazolo[3,4-c]pyridin-5-yl)pyridin-3-yl)butanamide], the inhibition at 10 µM amounted to 14% in the experiment on SW480 colon cancer cells; 46.5% in experiment [1] (10 μM, read-out: percent inhibition at 10 μM (given for EC50 of >10 μM)); 0% in the experiment on IL-6 (THP-1 cells). For the same molecule, the EC50 (in the experiment on SW480 colon cancer cells; in experiment [1]; with IL-6 (THP-1 cells)) was over 10000 nM throughout.

In the case of `O=C(Nc1cncc(-c2cc3c(-c4cc5c(-c6ccncc6)cccc5[nH]4)n[nH]c3cn2)c1)C1CCC1` [Compound 133, N-(5-(3-(4-(Pyridin-4-yl)-1H-indol-2-yl)-1H-pyrazolo[3,4-c]pyridin-5-yl)pyridin-3-yl)cyclobutanecarboxamide], the inhibition at 10 µM in the experiment on SW480 colon cancer cells was found to be 45.9%. Further, the results for the EC50 (with SW480 colon cancer cells; in experiment [1]; with IL-6 (THP-1 cells)) were over 10000 nM, 401 nM and 251 nM, respectively.

As to `c1cc(-c2ccncc2)c2cc(-c3n[nH]c4cnc(-c5cncnc5)cc34)[nH]c2c1` [Compound 139, 3-(4-(Pyridin-4-yl)-1H-indol-2-yl)-5-(pyrimidin-5-yl)-1H-pyrazolo[3,4-c]pyridine], the inhibition at 10 µM in the experiment on SW480 colon cancer cells amounted to 15.5%; in the experiment on IL-6 (THP-1 cells) it was 3%. The EC50 is over 10000 nM with SW480 colon cancer cells, 1230 nM in experiment [1] and over 10000 nM with IL-6 (THP-1 cells).

Turning to `Nc1cncc(-c2cc3c(-c4cc5c(-c6ccccn6)cccc5[nH]4)n[nH]c3cn2)c1` [Compound 143, 5-(3-(4-(Pyridin-2-yl)-1H-indol-2-yl)-1H-pyrazolo[3,4-c]pyridin-5-yl) pyridin-3-amine], the EC50 with SW480 colon cancer cells turned out to be 1920 nM; in experiment [1] it was 255 nM; with IL-6 (THP-1 cells) it was 549 nM.

On to `Cc1ccncc1-c1cc2c(-c3cc4c(-c5ccccn5)cccc4[nH]3)n[nH]c2cn1` [Compound 145, 5-(4-Methylpyridin-3-yl)-3-(4-(pyridin-2-yl)-1H-indol-2-yl)-1H-pyrazolo [3,4-c]pyridine], for which the figures for the EC50 (with SW480 colon cancer cells; in experiment [1]; in the experiment on IL-6 (THP-1 cells)) were 814 nM, 567 nM and 2830 nM, respectively.

As to `CN(C)Cc1cncc(-c2cc3c(-c4cc5c(-c6ccccn6)cccc5[nH]4)n[nH]c3cn2)c1` [Compound 153, N,N-Dimethyl-1-(5-(3-(4-(pyridin-2-yl)-1H-indol-2-yl)-1H-pyrazolo[3,4-c]pyridin-5-yl)pyridin-3-yl)methanamine], the EC50 in the experiment on SW480 colon cancer cells is 2060 nM; in experiment [1], 711 nM; in the experiment with IL-6 (THP-1 cells), 989 nM.

In the case of `CCCCC(=O)Nc1cncc(-c2cc3c(-c4cc5c(-c6ccccn6)cccc5[nH]4)n[nH]c3cn2)c1` [Compound 159, N-(5-(3-(4-(Pyridin-2-yl)-1H-indol-2-yl)-1H-pyrazolo[3,4-c]pyridin-5-yl)pyridin-3-yl)pentanamide], the EC50 with SW480 colon cancer cells was 2810 nM; in experiment [1], 3480 nM; in the experiment on IL-6 (THP-1 cells), 1560 nM.

For the molecule `O=C(Nc1cncc(-c2cc3c(-c4cc5c(N6CCCCC6)cccc5[nH]4)n[nH]c3cn2)c1)C1CC1` [Compound 188, N-(5-(3-(4-(Piperidin-1-yl)-1H-indol-2-yl)-1H-pyrazolo[3,4-c]pyridin-5-yl)pyridin-3-yl)cyclopropanecarboxamide], in the experiment with SW480 colon cancer cells, the inhibition at 10 µM was 25.3%. The EC50 with SW480 colon cancer cells is over 10000 nM; in experiment [1], 2420 nM; in the experiment on IL-6 (THP-1 cells), 4960 nM.

For the molecule `FC1(F)CCN(Cc2cncc(-c3cc4c(-c5cc6c(N7CCCCC7)cccc6[nH]5)n[nH]c4cn3)c2)C1` [Compound 194, 5-(5-((3,3-Difluoropyrrolidin-1-yl)methyl)pyridin-3-yl)-3-(4-(piperidin-1-yl)-1H-indol-2-yl)-1H-pyrazolo[3,4-c]pyridine], the results for the EC50 (with SW480 colon cancer cells; in experiment [1]; in the experiment on IL-6 (THP-1 cells)) were 6210 nM, 1830 nM and over 10000 nM, respectively. In the experiment on IL-6 (THP-1 cells), the inhibition at 10 µM came out at 0%.

As to `CC(C)C(=O)Nc1cncc(-c2cc3c(-c4cc5c(N6CCN(C)CC6)cccc5[nH]4)n[nH]c3cn2)c1` [Compound 233], the EC50 turned out to be 1950 nM in the experiment with SW480 colon cancer cells, 700 nM in experiment [1] and 753 nM with IL-6 (THP-1 cells).

With `CN1CCN(c2cccc3[nH]c(-c4n[nH]c5cnc(-c6cncc(NC(=O)C7CCC7)c6)cc45)cc23)CC1` [Compound 245], the inhibition at 10 µM in the experiment with SW480 colon cancer cells was determined as 64.6%. For the same molecule, the EC50 in the experiment on SW480 colon cancer cells is over 10000 nM; in experiment [1], 1970 nM; with IL-6 (THP-1 cells), 967 nM.

As for `O=C(Nc1cncc(-c2cc3c(-c4cc5ccccc5[nH]4)n[nH]c3cn2)c1)c1ccccc1` [Compound 263, N-(5-(3-(1H-Indol-2-yl)-1H-pyrazolo[3,4-c]pyridin-5-yl)pyridin-3-yl) benzamide], the results for the EC50 (with SW480 colon cancer cells; in experiment [1]; in the experiment with IL-6 (THP-1 cells)) were 4920 nM, 199 nM and 1190 nM, respectively.

Consider `c1ccc2[nH]c(-c3n[nH]c4cnc(-c5cncc(CN6CCCC6)c5)cc34)cc2c1` [Compound 266, 3-(1H-Indol-2-yl)-5-(5-(pyrrolidin-1-ylmethyl)pyridin-3-yl)-1H-pyrazolo [3,4-c]pyridine], for which the results for the EC50 (in the experiment on SW480 colon cancer cells; in experiment [1]; in the experiment with IL-6 (THP-1 cells)) were 1640 nM, 390 nM and 424 nM, respectively.

Turning to `CC(C)(C)CC(=O)Nc1cncc(-c2cc3c(-c4cc5ccccc5[nH]4)n[nH]c3cn2)c1` [Compound 268, N-(5-(3-(1H-Indol-2-yl)-1H-pyrazolo[3,4-c]pyridin-5-yl)pyridin-3-yl)-3,3-dimethylbutanamide], the inhibition at 10 µM with SW480 colon cancer cells worked out at 4.5%; in the experiment with IL-6 (THP-1 cells), 25.1%. The EC50 in the experiment with SW480 colon cancer cells is over 10000 nM; in experiment [1] it was 615 nM; in the experiment on IL-6 (THP-1 cells) it was over 10000 nM.

For `O=C(Nc1cncc(-c2cc3c(-c4cc5ccccc5[nH]4)n[nH]c3cn2)c1)C1CCCCC1` [Compound 275, N-(5-(3-(1H-Indol-2-yl)-1H-pyrazolo[3,4-c]pyridin-5-yl)pyridin-3-yl) cyclohexanecarboxamide], in the experiment on SW480 colon cancer cells, the inhibition at 10 µM worked out at 35.4%. The EC50 with SW480 colon cancer cells was over 10000 nM; in experiment [1] it was 635 nM; in the experiment with IL-6 (THP-1 cells), 92 nM.

As for `c1cc(-c2ccoc2)c2cc(-c3n[nH]c4cnc(-c5cncc(CN6CCCCC6)c5)cc34)[nH]c2c1` [Compound 323, 3-(4-(Furan-3-yl)-1H-indol-2-yl)-5-(5-(piperidin-1-ylmethyl)pyridin-3-yl)-1H-pyrazolo[3,4-c]pyridine], the EC50 with SW480 colon cancer cells worked out at 2340 nM; in experiment [1], 2770 nM; in the experiment on IL-6 (THP-1 cells), 3490 nM.

Take `CN(C)CCNc1cc(F)cc(-c2cccc3[nH]c(-c4n[nH]c5cnc(-c6cncc(N)c6)cc45)cc23)c1` [Compound 451, N^1-(3-(2-(5-(5-Aminopyridin-3-yl)-1H-pyrazolo[3,4-c]pyridin-3-yl)-1H-indol-4-yl)-5-fluorophenyl)-N^2,N^2-dimethylethane-1,2-diamine]: the EC50 came to 659 nM in the experiment with SW480 colon cancer cells, 448 nM in experiment [1] and 91 nM in the experiment with IL-6 (THP-1 cells).

As to `CCNCc1cncc(-c2cc3c(-c4cc5c(-c6cc(F)cc(NCCN(C)C)c6)cccc5[nH]4)n[nH]c3cn2)c1` [Compound 454, N^1-(3-(2-(5-(5-((Ethylamino)methyl)pyridin-3-yl)-1H-pyrazolo[3,4-c]pyridin-3-yl)-1H-indol-4-yl)-5-fluorophenyl)-N^2,N^2-dimethylethane-1,2-diamine], the EC50 was 1480 nM in the experiment on SW480 colon cancer cells, 1260 nM in experiment [1] and 856 nM in the experiment with IL-6 (THP-1 cells).

For the molecule `CN(C)CCNc1cc(F)cc(-c2cccc3[nH]c(-c4n[nH]c5cnc(-c6cncc(NC(=O)C(C)(C)C)c6)cc45)cc23)c1` [Compound 456, N-(5-(3-(4-(3-((2-(Dimethylamino)ethyl)amino)-5-fluorophenyl)-1H-indol-2-yl)-1H-pyrazolo[3,4-c]pyridin-5-yl)pyridin-3-yl)pivalamide], the EC50 in the experiment with SW480 colon cancer cells came out at 437 nM; in experiment [1], 386 nM; with IL-6 (THP-1 cells), 286 nM.

Turning to `CN(C)CCNc1cc(F)cc(-c2cccc3[nH]c(-c4n[nH]c5cnc(-c6cncc(CN(C)C)c6)cc45)cc23)c1` [Compound 461, N^1-(3-(2-(5-(5-((Dimethylamino)methyl)pyridin-3-yl)-1H-pyrazolo[3,4-c]pyridin-3-yl)-1H-indol-4-yl)-5-fluorophenyl)-N^2,N^2-dimethylethane-1,2-diamine], the EC50 with SW480 colon cancer cells was 964 nM; in experiment [1] it was 1310 nM; with IL-6 (THP-1 cells) it was 657 nM.
